Entries after “also recorded” stand apart in the source; their conditions may differ. Ends that are not written are not given here.
Legend:
[1] = test system: bacteria; test: Binding of targeting peptides to microorganisms (Table 3); conditions: preferably 1x PBS; for Target(s) (microorganism bound by the targeting peptide) / Target(s) (microorganisms bound by the targeting peptide): peptide binding in aqueous buffers that varied depending on peptide solubility
[2] = test system: microorganisms; test: Morphology, biofilm and growth disruption by peptides (Table 5); format: cell-based; set-up: key: A: Peptide aggregates; B: Less hyphal formation; Clumps; Diffuse clumps and small polyps; F: Diffuse growth; H: Thin; I: Growth inhibition; Microcolony formation; Rippled; Small polyps; Thick; W: Halo formation on top, microlonies on bottom
From the text: In certain embodiments peptides that induce alterations in phenotype or other biological activities can also be used as antimicrobial effector moieties.

[3] = microorganism bound by the targeting peptide, binding in aqueous buffers chosen by peptide solubility

| Substance | Target(s) (microorganism bound by the targeting peptide) [1] | Organism, effect (morphology, biofilm and growth disruption) ([2]; S. pneumoniae) | Target(s) (microorganisms bound by the targeting peptide) [1] | other results |
| --- | --- | --- | --- | --- |
| PF-604 (LMEQVEV; Peptide with targeting and/or antimicrobial activity) | S. epidermidis; also recorded: C. albicans; also recorded: C. jeikeium |  |  | Organism, effect (morphology, biofilm and growth disruption) ([2]; E. faecalis): E. faecalis (A) |
| PF-697 (chain 1 RADARAK; chain 2 RADARAK; Peptide with targeting and/or antimicrobial activity) | Mycobacteria spp | S. pneumoniae (H) |  | Organism, effect (morphology, biofilm and growth disruption) ([2]; C. albicans): C. albicans (H) |
| PF-658 (chain 1 PTTPPPTTPPEIPTGGTVIST; chain 2 PTTPPPTTPPEIPTGGTVIST; Peptide with targeting and/or antimicrobial activity) | Mycobacteria spp | S. pneumoniae (H) |  | Organism, effect (morphology, biofilm and growth disruption) ([2]; MRSA): MRSA (R) |
| PF-424 (IAAFVTSRAFSDTVSPI; Peptide with targeting and/or antimicrobial activity) |  | S. pneumoniae (H) | S. epidermidis and C. albicans and MRSA |  |
| PF-682 (chain 1 RRGKSEQGLSRR; chain 2 RRGKSEQGLSRR; Peptide with targeting and/or antimicrobial activity) | Mycobacteria spp | S. pneumoniae (A) |  |  |
| PF-344 (DERLPEAKAIRNFNGSVMVLGR; Peptide with targeting and/or antimicrobial activity) |  |  |  | Target(s) [1, 3]: B. subtilis; also recorded: C. jejuni; Organism, effect ([2]; E. coli): E. coli (A) |
| PF-301 (GIVLIGLKLIPLLANVLN; Peptide with targeting and/or antimicrobial activity) |  |  |  | Target(s) [1, 3]: C. difficile; Organism, effect ([2]; B. subtilis): B. subtilis (C); Organism, effect ([2]; S. epidermidis): S. epidermidis (C) |
| PF-668 (chain 1 TNAESMALAFRGRVHMSVNIAGLT; chain 2 TNAESMALAFRGRVHMSVNIAGLT; Peptide with targeting and/or antimicrobial activity) | Mycobacteria spp | S. pneumoniae (M) |  | Organism, effect (morphology, biofilm and growth disruption) ([2]; B. subtilis): B. subtilis (A); Organism, effect (morphology, biofilm and growth disruption) ([2]; C. albicans): C. albicans (A); Organism, effect (morphology, biofilm and growth disruption) ([2]; C. jeikeium): C. jeikeium (D); Organism, effect (morphology, biofilm and growth disruption) ([2]; E. faecalis): E. faecalis (D); Organism, effect (morphology, biofilm and growth disruption) ([2]; MRSA): MRSA (R); Organism, effect (morphology, biofilm and growth disruption) ([2]; S. epidermidis): S. epidermidis (M) |
| VMQSLYVKPPLILVTKLAQQN [PF-511] |  | S. pneumoniae (H) | E. coli; also recorded: P. aeruginosa; also recorded: S. pneumoniae; also recorded: C. jeikeium |  |
| PF-428 (ENEESIF; Peptide with targeting and/or antimicrobial activity) |  | S. pneumoniae (H) | S. epidermidis; also recorded: C. albicans; also recorded: E. faecalis; also recorded: C. jeikeium |  |
| FELVDWLETNLGKILKSKSA-NH2 [PF-522] |  | S. pneumoniae (H) | S. epidermidis; also recorded: E. coli; also recorded: P. aeruginosa; also recorded: S. pneumoniae; also recorded: E. faecalis |  |
| LMFFSENMDKRDTLSGKFRYFAGSKVIKLMNWLSENGK [PF-226] |  |  |  | Target(s) [1, 3]: A. baumannii; Organism, effect ([2]; M. luteus): M. luteus (T); Organism, effect ([2]; S. epidermidis): S. epidermidis (C) |
| PF-C145 (YGKESDP; Peptide with targeting and/or antimicrobial activity) | A. naeslundii; also recorded: F. nucleatum; also recorded: P. gingivalis; also recorded: S. mutans; also recorded: T. denticola |  |  | Organism, effect (morphology, biofilm and growth disruption) ([2]; F. nucleatum): F. nucleatum (C); Organism, effect (morphology, biofilm and growth disruption) ([2]; S. mutans): S. mutans (I) |
| PF-702 (chain 1 LSGRLAGRR; chain 2 LSGRLAGRR; Peptide with targeting and/or antimicrobial activity) | Mycobacteria spp | S. pneumoniae (H) |  |  |
| PF-645 (chain 1 SNSVQQG; chain 2 SNSVQQG; Peptide with targeting and/or antimicrobial activity) | Mycobacteria spp | S. pneumoniae (I) |  | Organism, effect (morphology, biofilm and growth disruption) ([2]; C. albicans): C. albicans (B) |
| PF-434 (GQLLADKRPARDYNRK; Peptide with targeting and/or antimicrobial activity) |  | S. pneumoniae (S) | S. epidermidis; also recorded: M. luteus; also recorded: S. pneumoniae; also recorded: C. jeikeium |  |
| PF-651 (chain 1 PRWPTGAGRHR; chain 2 PRWPTGAGRHR; Peptide with targeting and/or antimicrobial activity) | Mycobacteria spp | S. pneumoniae (H) |  |  |
| RESKLIAMADMIRRRI-NH2 [PF-545] |  |  | S. epidermidis; also recorded: E. coli; also recorded: P. aeruginosa; also recorded: S. pneumoniae; also recorded: E. faecalis; also recorded: C. jeikeium | Organism, effect (morphology, biofilm and growth disruption) ([2]; B. subtilis): B. subtilis (I); Organism, effect (morphology, biofilm and growth disruption) ([2]; C. albicans): C. albicans (B); Organism, effect (morphology, biofilm and growth disruption) ([2]; C. jeikeium): C. jeikeium (H); Organism, effect (morphology, biofilm and growth disruption) ([2]; E. faecalis): E. faecalis (H) |
| PF-423 (AGKKERLLSFREQFLNKNKKK; Peptide with targeting and/or antimicrobial activity) |  | S. pneumoniae (H) | S. epidermidis; also recorded: M. luteus; also recorded: E. coli; also recorded: S. pneumoniae; also recorded: E. faecalis; also recorded: C. jeikeium |  |
| PF-594 (IVSAIV; Peptide with targeting and/or antimicrobial activity) |  |  | C. jeikeium | Organism, effect (morphology, biofilm and growth disruption) ([2]; E. faecalis): E. faecalis (C) |
| PF-687 (chain 1 AKRVLSLAVAPHRRQPVQGT; chain 2 AKRVLSLAVAPHRRQPVQGT; Peptide with targeting and/or antimicrobial activity) | Mycobacteria spp | S. pneumoniae (A) |  |  |
| PF-653 (chain 1 QSVHPLPAETPVADVI; chain 2 QSVHPLPAETPVADVI; Peptide with targeting and/or antimicrobial activity) | Mycobacteria spp | S. pneumoniae (H) |  |  |
| PF-661 (chain 1 PDEDIRRRAILPPAGPCRPMSPE; chain 2 PDEDIRRRAILPPAGPCRPMSPE; Peptide with targeting and/or antimicrobial activity) | Mycobacteria spp |  |  | Organism, effect (morphology, biofilm and growth disruption) ([2]; MRSA): MRSA (R) |
| PF-680 (chain 1 ADPHPTTGI; chain 2 ADPHPTTGI; Peptide with targeting and/or antimicrobial activity) | Mycobacteria spp |  |  | Organism, effect (morphology, biofilm and growth disruption) ([2]; MRSA): MRSA (R) |
| PF-585 (DYNHLLNVVQDWVNTN; Peptide with targeting and/or antimicrobial activity) |  | S. pneumoniae (R) | S. epidermidis and E. coli and C. albicans and MRSA and S. pneumoniae and C. jeikeium | Organism, effect (morphology, biofilm and growth disruption) ([2]; C. jejuni): C. jejuni (R); Organism, effect (morphology, biofilm and growth disruption) ([2]; E. faecalis): E. faecalis (A); Organism, effect (morphology, biofilm and growth disruption) ([2]; MRSA): MRSA (S); Organism, effect (morphology, biofilm and growth disruption) ([2]; S. epidermidis): S. epidermidis (S) |
| PF-637 (chain 1 SRIKQDARSVRKYDRIGIFFYSFKSA; chain 2 SRIKQDARSVRKYDRIGIFFYSFKSA; Peptide with targeting and/or antimicrobial activity) | S. epidermidis and P. aeruginosa and C. albicans and MRSA and S. pneumoniae and E. faecalis and C. jeikeium | S. pneumoniae (M) |  | Organism, effect (morphology, biofilm and growth disruption) ([2]; C. jeikeium): C. jeikeium (D); Organism, effect (morphology, biofilm and growth disruption) ([2]; E. faecalis): E. faecalis (D); Organism, effect (morphology, biofilm and growth disruption) ([2]; MRSA): MRSA (M); Organism, effect (morphology, biofilm and growth disruption) ([2]; S. epidermidis): S. epidermidis (M) |
| LNFRAENKILEKIHISLIDTVEGSA [PF-575] |  | S. pneumoniae (A) | M. luteus and E. coli and C. albicans and MRSA and S. pneumoniae and E. faecalis and C. jeikeium | Organism, effect (morphology, biofilm and growth disruption) ([2]; C. jeikeium): C. jeikeium (A); Organism, effect (morphology, biofilm and growth disruption) ([2]; C. jejuni): C. jejuni (R); Organism, effect (morphology, biofilm and growth disruption) ([2]; P. aeruginosa): P. aeruginosa (A) |
| PF-065 (LEKNTRDNYFIHAIDRIYINTSKGLFPESELVAWG; Peptide with targeting and/or antimicrobial activity) |  |  |  | Target(s) ([1]; microorganism the targeting peptide binds, binding in aqueous buffers that varied with peptide solubility): M. luteus and E. coli and P. aeruginosa and C. albicans and MRSA and S. pneumoniae and C. jeikeium and C. jejuni; Organism, effect ([2]; C. jeikeium): C. jeikeium (A); Organism, effect ([2]; MRSA): MRSA (R); Organism, effect ([2]; S. epidermidis): S. epidermidis (D) |
| PF-421 (KHCFEITDKTDVV; Peptide with targeting and/or antimicrobial activity) |  |  | C. jeikeium | Organism, effect ([2]; S. pneumoniae): S. pneumoniae (H) |

Reference: patent publication US9597407B2, “Targeted antimicrobial moieties” (C3 Jian, Inc., priority 2009, dated 2017)
